Experimental data as given in ChEMBL document CHEMBL5705898 (Proc Natl Acad Sci U S A, 2014).
≈ marks a conversion by molar mass, not a printed value.

Key:
[1] = biological target: Histamine H4 receptor (Homo sapiens) (UniProt Q9H3N8); assay: Inhibition of human H4 receptor at 10 uM relative to control
[2] = biological target: Melanocortin receptor 4 (Homo sapiens) (UniProt P32245); assay: Inhibition of human MC4 at 10 uM relative to control
[3] = biological target: Beta-secretase 1 (Homo sapiens) (UniProt P56817); assay: Inhibition of human BACE-1 at 10 uM relative to control
Beta-secretase 1 (Homo sapiens), sequence (P56817 whole entry): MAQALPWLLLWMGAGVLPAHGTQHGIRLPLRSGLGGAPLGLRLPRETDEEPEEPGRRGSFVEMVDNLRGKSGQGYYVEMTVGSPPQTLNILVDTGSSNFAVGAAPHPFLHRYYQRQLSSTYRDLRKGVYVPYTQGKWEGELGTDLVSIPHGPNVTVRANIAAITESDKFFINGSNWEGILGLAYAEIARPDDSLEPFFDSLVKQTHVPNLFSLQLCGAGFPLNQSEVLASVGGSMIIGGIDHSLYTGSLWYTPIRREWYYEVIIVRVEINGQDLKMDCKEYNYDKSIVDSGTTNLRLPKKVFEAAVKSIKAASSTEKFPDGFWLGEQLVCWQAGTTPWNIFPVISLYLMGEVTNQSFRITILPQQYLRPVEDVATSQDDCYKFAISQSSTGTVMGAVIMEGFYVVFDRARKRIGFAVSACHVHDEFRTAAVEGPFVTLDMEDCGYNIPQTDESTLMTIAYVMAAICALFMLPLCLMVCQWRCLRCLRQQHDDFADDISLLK

[4] = species: Homo sapiens; assay: Inhibition of human TNF-alpha at 10 uM relative to control
[5] = biological target: Histamine H1 receptor (Homo sapiens) (UniProt P35367); assay: Inhibition of human H1 receptor at 10 uM relative to control
Histamine H1 receptor (Homo sapiens), sequence (P35367 whole entry): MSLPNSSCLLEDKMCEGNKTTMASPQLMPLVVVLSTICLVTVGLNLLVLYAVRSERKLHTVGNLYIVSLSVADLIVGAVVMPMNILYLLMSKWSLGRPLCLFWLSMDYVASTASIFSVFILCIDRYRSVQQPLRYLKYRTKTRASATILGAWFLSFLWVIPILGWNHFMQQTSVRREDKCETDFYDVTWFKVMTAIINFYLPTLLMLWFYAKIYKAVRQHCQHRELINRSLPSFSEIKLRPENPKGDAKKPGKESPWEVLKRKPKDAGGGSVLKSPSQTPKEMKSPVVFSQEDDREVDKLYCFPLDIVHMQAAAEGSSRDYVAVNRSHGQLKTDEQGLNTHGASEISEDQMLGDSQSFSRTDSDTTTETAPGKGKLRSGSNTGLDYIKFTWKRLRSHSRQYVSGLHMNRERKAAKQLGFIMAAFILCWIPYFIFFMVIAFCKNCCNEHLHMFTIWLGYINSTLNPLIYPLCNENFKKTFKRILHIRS

[6] = biological target: Vasopressin V2 receptor (Homo sapiens) (UniProt P30518); assay: Inhibition of human V2 receptor at 10 uM relative to control
Vasopressin V2 receptor (Homo sapiens), sequence (P30518 whole entry): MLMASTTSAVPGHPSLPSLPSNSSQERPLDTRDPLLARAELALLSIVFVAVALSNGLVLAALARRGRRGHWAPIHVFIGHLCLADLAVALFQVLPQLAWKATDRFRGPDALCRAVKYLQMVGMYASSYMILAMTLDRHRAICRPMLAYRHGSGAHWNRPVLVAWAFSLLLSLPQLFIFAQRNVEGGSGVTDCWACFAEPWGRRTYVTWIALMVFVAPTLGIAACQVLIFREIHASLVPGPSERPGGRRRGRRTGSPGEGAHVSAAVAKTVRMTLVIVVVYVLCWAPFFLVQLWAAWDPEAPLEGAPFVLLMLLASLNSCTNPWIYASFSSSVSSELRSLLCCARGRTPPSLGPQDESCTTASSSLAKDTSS

[7] = biological target: Melanin-concentrating hormone receptor 1 (Homo sapiens) (UniProt Q99705); assay: Inhibition of human MCH1 receptor at 10 uM relative to control
Melanin-concentrating hormone receptor 1 (Homo sapiens), sequence (Q99705 whole entry): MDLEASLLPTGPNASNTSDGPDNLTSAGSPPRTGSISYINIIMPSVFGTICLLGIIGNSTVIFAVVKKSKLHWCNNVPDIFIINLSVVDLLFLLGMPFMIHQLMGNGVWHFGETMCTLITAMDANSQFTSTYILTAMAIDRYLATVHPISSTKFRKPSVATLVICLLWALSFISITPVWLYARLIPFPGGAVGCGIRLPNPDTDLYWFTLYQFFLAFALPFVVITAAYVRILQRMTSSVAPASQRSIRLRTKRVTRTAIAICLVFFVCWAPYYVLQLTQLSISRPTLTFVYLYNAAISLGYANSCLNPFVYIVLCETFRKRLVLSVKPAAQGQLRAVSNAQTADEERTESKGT

[8] = biological target: Tyrosine-protein kinase Lyn (Homo sapiens) (UniProt P07948); assay: Inhibition of human Lyn A kinase at 10 uM relative to control
[9] = Aqueous solubility of compound; format: physicochemical; settings: buffer
[10] = biological target: Alpha-2B adrenergic receptor (Homo sapiens, UniProt P18089); assay: Inhibition of human alpha 2B receptor
[11] = biological target: Muscarinic acetylcholine receptor M2 (Homo sapiens) (UniProt P08172); assay: Inhibition of human M2 receptor at 10 uM relative to control
[12] = biological target: 5-hydroxytryptamine receptor 2B (Homo sapiens) (UniProt P41595); assay: Inhibition of human 5-HT2B receptor at 10 uM relative to control
5-hydroxytryptamine receptor 2B (Homo sapiens), sequence (P41595 whole entry): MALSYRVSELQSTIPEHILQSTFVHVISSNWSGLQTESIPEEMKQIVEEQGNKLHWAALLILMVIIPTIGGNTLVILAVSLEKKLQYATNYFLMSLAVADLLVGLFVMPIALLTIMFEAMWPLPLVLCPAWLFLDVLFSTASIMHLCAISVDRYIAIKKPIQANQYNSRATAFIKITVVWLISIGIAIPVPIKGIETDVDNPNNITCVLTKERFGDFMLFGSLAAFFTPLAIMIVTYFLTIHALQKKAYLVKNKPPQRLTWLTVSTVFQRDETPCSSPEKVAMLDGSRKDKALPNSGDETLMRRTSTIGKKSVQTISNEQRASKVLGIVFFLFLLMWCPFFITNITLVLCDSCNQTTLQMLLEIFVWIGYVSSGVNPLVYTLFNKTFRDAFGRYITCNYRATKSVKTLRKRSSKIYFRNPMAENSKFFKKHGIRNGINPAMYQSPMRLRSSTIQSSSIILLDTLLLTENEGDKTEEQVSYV

[13] = species: Homo sapiens; assay: Inhibition of PDE6 (unknown origin) at 10 uM relative to control
[14] = biological target: Histone-lysine N-methyltransferase SETD7 (Homo sapiens) (UniProt Q8WTS6); settings: HEK293, dose 10.0 µM
Histone-lysine N-methyltransferase SETD7 (Homo sapiens), sequence (Q8WTS6 whole entry): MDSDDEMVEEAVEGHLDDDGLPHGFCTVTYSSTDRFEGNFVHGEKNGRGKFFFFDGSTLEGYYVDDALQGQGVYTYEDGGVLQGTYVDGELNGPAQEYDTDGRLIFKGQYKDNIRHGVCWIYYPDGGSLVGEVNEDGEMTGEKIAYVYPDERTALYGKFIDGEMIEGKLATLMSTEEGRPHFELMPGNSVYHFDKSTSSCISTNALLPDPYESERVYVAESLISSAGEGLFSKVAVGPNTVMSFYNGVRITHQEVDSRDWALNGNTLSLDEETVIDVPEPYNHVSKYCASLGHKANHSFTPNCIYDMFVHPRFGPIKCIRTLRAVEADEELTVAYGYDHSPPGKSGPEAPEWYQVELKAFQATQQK

[15] = species: Homo sapiens; assay: Inhibition of strychnine-insensitive glycine receptor (unknown origin) at 10 uM relative to control
[16] = Lipophilicity, logD of compound at pH 7.4; format: physicochemical; settings: buffer
[17] = biological target: Acetylcholinesterase (Homo sapiens) (UniProt P22303); assay: Inhibition of human acetylcholinesterase at 10 uM relative to control
[18] = biological target: Type-2 angiotensin II receptor (Homo sapiens) (UniProt P50052); assay: Inhibition of human AT2 receptor at 10 uM relative to control
Type-2 angiotensin II receptor (Homo sapiens), sequence (P50052 whole entry): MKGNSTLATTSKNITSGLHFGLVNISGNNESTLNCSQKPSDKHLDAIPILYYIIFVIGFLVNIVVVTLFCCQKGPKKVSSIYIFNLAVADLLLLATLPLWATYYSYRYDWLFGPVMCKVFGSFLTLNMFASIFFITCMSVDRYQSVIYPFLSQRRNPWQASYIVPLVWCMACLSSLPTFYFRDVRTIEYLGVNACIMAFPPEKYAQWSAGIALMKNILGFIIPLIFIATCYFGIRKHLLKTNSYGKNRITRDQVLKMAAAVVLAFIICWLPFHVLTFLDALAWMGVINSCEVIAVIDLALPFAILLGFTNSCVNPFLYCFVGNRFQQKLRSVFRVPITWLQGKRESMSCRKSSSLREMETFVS

[19] = biological target: Vascular endothelial growth factor receptor 1 (Homo sapiens) (UniProt P17948); assay: Inhibition of human FLT-1 kinase (VEGFR1) at 10 uM relative to control
[20] = biological target: D(2) dopamine receptor (Homo sapiens) (UniProt P14416); assay: Inhibition of human D2S receptor at 10 uM relative to control
[21] = biological target: Tyrosine-protein kinase Fyn (Homo sapiens) (UniProt P06241); assay: Inhibition of human Fyn kinase at 10 uM relative to control
Tyrosine-protein kinase Fyn (Homo sapiens), sequence (P06241 2-537 limits assumed): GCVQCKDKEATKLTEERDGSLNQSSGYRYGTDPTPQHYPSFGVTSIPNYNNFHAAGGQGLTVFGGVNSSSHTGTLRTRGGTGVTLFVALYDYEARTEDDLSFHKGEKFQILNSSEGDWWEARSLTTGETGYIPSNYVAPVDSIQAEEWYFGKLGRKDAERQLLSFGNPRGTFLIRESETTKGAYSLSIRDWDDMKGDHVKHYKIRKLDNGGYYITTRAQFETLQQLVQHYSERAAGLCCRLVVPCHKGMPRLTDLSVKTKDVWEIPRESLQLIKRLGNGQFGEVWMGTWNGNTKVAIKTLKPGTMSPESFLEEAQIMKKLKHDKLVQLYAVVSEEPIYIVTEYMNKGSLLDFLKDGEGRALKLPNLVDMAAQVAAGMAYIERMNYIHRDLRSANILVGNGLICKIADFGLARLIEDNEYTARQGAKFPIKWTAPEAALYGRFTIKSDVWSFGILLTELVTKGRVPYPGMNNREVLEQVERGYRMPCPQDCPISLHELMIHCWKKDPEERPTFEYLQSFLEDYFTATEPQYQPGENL

[22] = biological target: Glucagon receptor (Homo sapiens) (UniProt P47871); assay: Inhibition of human Glucagon receptor at 10 uM relative to control
[23] = biological target: 5-hydroxytryptamine receptor 6 (Homo sapiens) (UniProt P50406); assay: Inhibition of human 5-HT6 receptor at 10 uM relative to control
[24] = biological target: High affinity choline transporter 1 (Homo sapiens) (UniProt Q9GZV3); assay: Inhibition of human choline transporter (CHT1) at 10 uM relative to control
High affinity choline transporter 1 (Homo sapiens), sequence (Q9GZV3 whole entry): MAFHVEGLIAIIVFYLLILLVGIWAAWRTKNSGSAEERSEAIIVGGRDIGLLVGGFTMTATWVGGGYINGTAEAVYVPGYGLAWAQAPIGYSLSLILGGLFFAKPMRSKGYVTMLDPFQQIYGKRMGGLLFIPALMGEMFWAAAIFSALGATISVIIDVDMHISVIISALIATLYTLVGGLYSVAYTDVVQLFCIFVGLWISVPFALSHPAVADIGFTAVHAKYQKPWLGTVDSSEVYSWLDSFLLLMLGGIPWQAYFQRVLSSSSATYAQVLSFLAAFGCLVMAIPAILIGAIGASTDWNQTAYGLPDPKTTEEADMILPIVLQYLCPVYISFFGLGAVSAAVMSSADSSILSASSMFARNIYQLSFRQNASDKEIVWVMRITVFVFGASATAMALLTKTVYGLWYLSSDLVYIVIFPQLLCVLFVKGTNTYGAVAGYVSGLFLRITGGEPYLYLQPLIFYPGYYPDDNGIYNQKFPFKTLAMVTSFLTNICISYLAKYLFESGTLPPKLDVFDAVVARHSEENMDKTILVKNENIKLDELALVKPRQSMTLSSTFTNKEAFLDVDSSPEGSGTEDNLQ

[25] = biological target: Kappa-type opioid receptor (Homo sapiens, UniProt P41145); assay: Inhibition of human kappa opioid receptor at 10 uM relative to control
Kappa-type opioid receptor, sequence (P41145 whole entry): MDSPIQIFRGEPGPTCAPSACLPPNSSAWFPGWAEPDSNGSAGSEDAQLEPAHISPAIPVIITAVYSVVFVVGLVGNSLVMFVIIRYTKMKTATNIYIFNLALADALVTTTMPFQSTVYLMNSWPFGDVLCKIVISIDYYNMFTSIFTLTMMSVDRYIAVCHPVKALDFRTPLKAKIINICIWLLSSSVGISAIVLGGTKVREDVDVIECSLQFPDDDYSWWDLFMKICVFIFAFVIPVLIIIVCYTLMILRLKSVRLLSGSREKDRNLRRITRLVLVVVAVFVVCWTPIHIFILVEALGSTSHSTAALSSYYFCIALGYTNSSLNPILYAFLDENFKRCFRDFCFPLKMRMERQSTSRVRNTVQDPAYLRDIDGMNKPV

Melanocortin receptor 4 (Homo sapiens), sequence (P32245 whole entry): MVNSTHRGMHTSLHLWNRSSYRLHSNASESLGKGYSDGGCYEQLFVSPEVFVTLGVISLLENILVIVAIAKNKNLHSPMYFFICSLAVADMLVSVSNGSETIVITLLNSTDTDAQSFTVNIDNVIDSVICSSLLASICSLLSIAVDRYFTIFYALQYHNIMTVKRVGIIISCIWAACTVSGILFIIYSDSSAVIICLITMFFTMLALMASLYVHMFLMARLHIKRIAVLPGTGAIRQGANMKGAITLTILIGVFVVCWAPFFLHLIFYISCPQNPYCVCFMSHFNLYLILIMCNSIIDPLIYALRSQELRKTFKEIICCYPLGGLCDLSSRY

`O=C([C@@H](Cc1cccc(C(F)(F)F)c1)NS(=O)(=O)c1cc(F)c2c(c1)CCNC2)N1CCCC1` gave an inhibition [1] of -2%, an inhibition [2] of 15% and an inhibition [3] of 3%. For the same compound, the inhibition [4] was -4%, the inhibition [5] was 10% and the inhibition [6] was 11%. The inhibition [7] was -1%, the inhibition [8] was 14% and the solubility [9] was 285 µM (≈ 142 µg/mL). For the same compound, the IC50 [10] was 1300 nM, the inhibition [11] was 3% and the inhibition [12] was 1%. It also gave an inhibition [13] of 11%, a deltaT [14] of 4 °C and an inhibition [15] of -1%. It also gave a logD [16] of 2.3, an inhibition [17] of 0% and an inhibition [18] of 12%. It also gave an inhibition [19] of 1%, an inhibition [20] of 39% and an inhibition [21] of 1%. It also gave an inhibition [22] of 1%, an inhibition [23] of -8% and an inhibition [24] of 9%. It also gave an inhibition [25] of 55%.
